Reference: patent US10316017B2, “COT modulators and methods of use thereof” (Gilead Sciences, Inc., priority 2015, dated 2019)

These compounds were tested against T1, human Cot catalytic domain (30-397 amino acids) (Homo sapiens, UniProt P41279) (assay: High Throughput Cot Biochemical Assay (KinEASE TR-FRET)). Conditions: Cot KinEASE TR-FRET, 400 μM ATP; read-out: IC50 HTRF.
T1 construct: Purified recombinant human Cot catalytic domain (30-397 amino acids) was purchased from Cama Biosciences; purchased Cama Biosciences (so in the source)
Method in brief: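 TR-FRET (KinEASE) read-out: Eu-labelled phospho-specific antibody binds XL665-tagged STK3 peptide (1 μM) phosphorylated by 5 nM human Cot kinase domain (residues 30-397). Reaction at 400 μM ATP, pH 7.0 MOPS buffer with 10 mM MgOAc, 1 mM DTT and 0.1% DMSO.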

T1 sequence (P41279 30-397): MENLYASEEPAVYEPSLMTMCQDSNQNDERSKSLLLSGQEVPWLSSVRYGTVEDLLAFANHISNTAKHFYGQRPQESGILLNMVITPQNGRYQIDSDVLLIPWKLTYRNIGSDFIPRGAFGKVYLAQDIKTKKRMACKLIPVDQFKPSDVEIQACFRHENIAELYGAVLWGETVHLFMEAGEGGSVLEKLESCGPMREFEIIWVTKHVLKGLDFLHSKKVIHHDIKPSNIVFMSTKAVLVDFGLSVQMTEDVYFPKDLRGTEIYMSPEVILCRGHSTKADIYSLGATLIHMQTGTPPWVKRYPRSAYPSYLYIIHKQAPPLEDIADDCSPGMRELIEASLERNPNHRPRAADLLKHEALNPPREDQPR

First: CCN1CCC(n2cc(C(Nc3cc(Cl)c4ncc(C#N)c(Nc5ccc(F)c(Cl)c5)c4c3)c3ccc(F)c(F)c3)nn2)CC1 (stereo not drawn) [Example 901, 8-chloro-4-((3-chloro-4-fluorophenyl)amino)-6-(((3,4-difluorophenyl)(1-(1-ethylpiperidin-4-yl)-1H-1,2,3-triazol-4-yl)methyl)amino)quinoline-3-carbonitrile]
Second: CCN1CCC(n2cc(C(Nc3cc(Cl)c4ncc(C#N)c(Nc5ccc(F)c(Cl)c5)c4c3)c3ccc(Cl)c(Cl)c3)nn2)CC1 (stereo not drawn) [Example 911, 8-chloro-4-((3-chloro-4-fluorophenyl)amino)-6-(((3,4-dichlorophenyl)(1-(1-ethylpiperidin-4-yl)-1H-1,2,3-triazol-4-yl)methyl)amino)quinoline-3-carbonitrile]
The IC50 of the first is 3.3-fold lower: 0.011 µM for the first, 0.036 µM for the second. The first is the more potent here.

COc1cccc(C(Nc2cc(Cl)c3ncc(C#N)c(Nc4ccc(F)c(Cl)c4)c3c2)c2cn(C3CCN(C(=O)OCc4ccccc4)CC3)nn2)c1 (stereo not drawn) [Example 902, benzyl 4-(4-(((8-chloro-4-((3-chloro-4-fluorophenyl)amino)-3-cyanoquinolin-6-yl)amino)(3-methoxyphenyl)methyl)-1H-1,2,3-triazol-1-yl)piperidine-1-carboxylate] and N#Cc1cnc2c(Cl)cc(NC(c3cccc(F)c3)c3cn(C4CCN(C(=O)OCc5ccccc5)CC4)nn3)cc2c1Nc1ccc(F)c(Cl)c1 (stereo not drawn) [Example 905, benzyl 4-(4-(((8-chloro-4-((3-chloro-4-fluorophenyl)amino)-3-cyanoquinolin-6-yl)amino)(3-fluorophenyl)methyl)-1H-1,2,3-triazol-1-yl)piperidine-1-carboxylate] cannot be ordered by IC50: > 1 µM for the first, > 1 µM for the second.

COc1cccc(C(Nc2cc(Cl)c3ncc(C#N)c(Nc4ccc(F)c(Cl)c4)c3c2)c2cn(C3CCNCC3)nn2)c1 (stereo not drawn) [Example 903, 8-chloro-4-((3-chloro-4-fluorophenyl)amino)-6-(((3-methoxyphenyl)(1-(piperidin-4-yl)-1H-1,2,3-triazol-4-yl)methyl)amino)quinoline-3-carbonitrile] and N#Cc1cnc2c(Cl)cc(NC(c3cccc(F)c3)c3cn(C4CCNCC4)nn3)cc2c1Nc1ccc(F)c(Cl)c1 (stereo not drawn) [Example 906, 8-chloro-4-((3-chloro-4-fluorophenyl)amino)-6-(((3-fluorophenyl)(1-(piperidin-4-yl)-1H-1,2,3-triazol-4-yl)methyl)amino)quinoline-3-carbonitrile] are within 1.5-fold of each other in IC50: 0.007 µM for the first, 0.008 µM for the second.

CCN1CCC(n2cc(C(Nc3cc(Cl)c4ncc(C#N)c(Nc5ccc(F)c(Cl)c5)c4c3)c3cccc(OC)c3)nn2)CC1 (stereo not drawn) [Example 904, 8-chloro-4-((3-chloro-4-fluorophenyl)amino)-6-(((1-(1-ethylpiperidin-4-yl)-1H-1,2,3-triazol-4-yl)(3-methoxyphenyl)methyl)amino) quinoline-3-carbonitrile] and CCN1CCC(n2cc(C(Nc3cc(Cl)c4ncc(C#N)c(Nc5ccc(F)c(Cl)c5)c4c3)c3ccccc3)nn2)CC1 (stereo not drawn) [Example 922, 8-chloro-4-((3-chloro-4-fluorophenyl)amino)-6-(((1-(1-ethylpiperidin-4-yl)-1H-1,2,3-triazol-4-yl)(phenyl)methyl)amino) quinoline-3-carbonitrile] are within 1.5-fold of each other in IC50: 0.005 µM for the first, 0.004 µM for the second.

Compared with CCN1CCC(n2cc(C(Nc3cc(Cl)c4ncc(C#N)c(Nc5ccc(F)c(Cl)c5)c4c3)c3ccc(F)cc3)nn2)CC1 (stereo not drawn) [Example 908, 8-chloro-4-((3-chloro-4-fluorophenyl)amino)-6-(((1-(1-ethylpiperidin-4-yl)-1H-1,2,3-triazol-4-yl)(4-fluorophenyl)methyl)amino) quinoline-3-carbonitrile], CCN1CCC(n2cc(C(Nc3cc(Cl)c4ncc(C#N)c(Nc5ccc(F)c(Cl)c5)c4c3)c3ccc(C)cc3)nn2)CC1 (stereo not drawn) [Example 917, 8-chloro-4-((3-chloro-4-fluorophenyl)amino)-6-(((1-(1-ethylpiperidin-4-yl)-1H-1,2,3-triazol-4-yl)(p-tolyl)methyl)amino)quinoline-3-carbonitrile] is 4.6-fold higher in IC50: 0.005 µM for the first, 0.023 µM for the second.

N#Cc1cnc2c(Cl)cc(NC(c3ccc(Cl)c(Cl)c3)c3cn(C4CCN(C(=O)OCc5ccccc5)CC4)nn3)cc2c1Nc1ccc(F)c(Cl)c1 (stereo not drawn) [Example 909, benzyl 4-(4-(((8-chloro-4-((3-chloro-4-fluorophenyl)amino)-3-cyanoquinolin-6-yl)amino)(3,4-dichlorophenyl)methyl)-1H-1,2,3-triazol-1-yl)piperidine-1-carboxylate] and N#Cc1cnc2c(Cl)cc(NC(c3ccc(Cl)cc3)c3cn(C4CCN(C(=O)OCc5ccccc5)CC4)nn3)cc2c1Nc1ccc(F)c(Cl)c1 (stereo not drawn) [Example 913, benzyl 4-(4-(((8-chloro-4-((3-chloro-4-fluorophenyl)amino)-3-cyanoquinolin-6-yl)amino)(4-chlorophenyl)methyl)-1H-1,2,3-triazol-1-yl)piperidine-1-carboxylate] cannot be ordered by IC50: > 1 µM for the first, > 1 µM for the second.

Going from N#Cc1cnc2c(Cl)cc(NC(c3ccc(Cl)c(Cl)c3)c3cn(C4CCNCC4)nn3)cc2c1Nc1ccc(F)c(Cl)c1 (stereo not drawn) [Example 910, 8-chloro-4-((3-chloro-4-fluorophenyl)amino)-6-(((3,4-dichlorophenyl)(1-(piperidin-4-yl)-1H-1,2,3-triazol-4-yl)methyl)amino)quinoline-3-carbonitrile] to N#Cc1cnc2c(Cl)cc(NC(c3ccc(Cl)cc3)c3cn(C4CCNCC4)nn3)cc2c1Nc1ccc(F)c(Cl)c1 (stereo not drawn) [Example 914, 8-chloro-4-((3-chloro-4-fluorophenyl)amino)-6-(((4-chlorophenyl)(1-(piperidin-4-yl)-1H-1,2,3-triazol-4-yl)methyl)amino)quinoline-3-carbonitrile], the IC50 falls from 0.052 µM to 0.023 µM (2.3-fold). The second is the more potent here.

First: N#Cc1cnc2c(Cl)cc(NC(c3ccccc3)c3cn(CC(=O)O)nn3)cc2c1Nc1ccc(F)c(Cl)c1 (stereo not drawn) [Example 912, 2-(4-(((8-chloro-4-((3-chloro-4-fluorophenyl)amino)-3-cyanoquinolin-6-yl)amino)(phenyl)methyl)-1H-1,2,3-triazol-1-yl)acetic acid]
Second: N#Cc1cnc2c(Cl)cc(NC(c3ccccc3)c3cn(C4CCNCC4)nn3)cc2c1Nc1ccc(F)c(Cl)c1 (stereo not drawn) [Example 921, 8-chloro-4-((3-chloro-4-fluorophenyl)amino)-6-((phenyl (1-(piperidin-4-yl)-1H-1,2,3-triazol-4-yl)methyl)amino)quinoline-3-carbonitrile]
The IC50 of the first is 7.5-fold higher: 0.06 µM for the first, 0.008 µM for the second. The second is the more potent here.

Compared with Cc1ccc(C(Nc2cc(Cl)c3ncc(C#N)c(Nc4ccc(F)c(Cl)c4)c3c2)c2cn(C3CCN(C(=O)OCc4ccccc4)CC3)nn2)cc1 (stereo not drawn) [Example 915, benzyl 4-(4-(((8-chloro-4-((3-chloro-4-fluorophenyl)amino)-3-cyanoquinolin-6-yl)aminoXp-tolyl)methyl)-1H-1,2,3-triazol-1-yl)piperidine-1-carboxylate], Cc1ccc(C(Nc2cc(Cl)c3ncc(C#N)c(Nc4ccc(F)c(Cl)c4)c3c2)c2cn(C3CCNCC3)nn2)cc1 (stereo not drawn) [Example 916, 8-chloro-4-((3-chloro-4-fluorophenyl)amino)-6-(((1-(piperidin-4-yl)-1H-1,2,3-triazol-4-yl)(p-tolyl)methyl)amino) quinoline-3-carbonitrile] is lower in IC50: > 1 µM for the first, 0.048 µM for the second. The second is the more potent here.
